According to US7432291B2, “Ether derivatives” (Hoffman-La Roche Inc., priority 2004, dated 2008):

Legend:
[1] = target: T1, HER2 (pY 1248) in Calu3 cells (Homo sapiens, UniProt P04626); assay: Inhibition of HER2 phosphorylation in Calu3 tumor cell line; assay type: cell-based; conditions: Calu-3, compound concentration 1 μM, 16 h incubation, percentage of the DMSO treated control, read-out: Percent inhibition of HER2-phosphorylation
T1 construct: endogenous in cells; host or cells: Calu-3 (HTB-55)
T1 sequence (P04626 23-1255): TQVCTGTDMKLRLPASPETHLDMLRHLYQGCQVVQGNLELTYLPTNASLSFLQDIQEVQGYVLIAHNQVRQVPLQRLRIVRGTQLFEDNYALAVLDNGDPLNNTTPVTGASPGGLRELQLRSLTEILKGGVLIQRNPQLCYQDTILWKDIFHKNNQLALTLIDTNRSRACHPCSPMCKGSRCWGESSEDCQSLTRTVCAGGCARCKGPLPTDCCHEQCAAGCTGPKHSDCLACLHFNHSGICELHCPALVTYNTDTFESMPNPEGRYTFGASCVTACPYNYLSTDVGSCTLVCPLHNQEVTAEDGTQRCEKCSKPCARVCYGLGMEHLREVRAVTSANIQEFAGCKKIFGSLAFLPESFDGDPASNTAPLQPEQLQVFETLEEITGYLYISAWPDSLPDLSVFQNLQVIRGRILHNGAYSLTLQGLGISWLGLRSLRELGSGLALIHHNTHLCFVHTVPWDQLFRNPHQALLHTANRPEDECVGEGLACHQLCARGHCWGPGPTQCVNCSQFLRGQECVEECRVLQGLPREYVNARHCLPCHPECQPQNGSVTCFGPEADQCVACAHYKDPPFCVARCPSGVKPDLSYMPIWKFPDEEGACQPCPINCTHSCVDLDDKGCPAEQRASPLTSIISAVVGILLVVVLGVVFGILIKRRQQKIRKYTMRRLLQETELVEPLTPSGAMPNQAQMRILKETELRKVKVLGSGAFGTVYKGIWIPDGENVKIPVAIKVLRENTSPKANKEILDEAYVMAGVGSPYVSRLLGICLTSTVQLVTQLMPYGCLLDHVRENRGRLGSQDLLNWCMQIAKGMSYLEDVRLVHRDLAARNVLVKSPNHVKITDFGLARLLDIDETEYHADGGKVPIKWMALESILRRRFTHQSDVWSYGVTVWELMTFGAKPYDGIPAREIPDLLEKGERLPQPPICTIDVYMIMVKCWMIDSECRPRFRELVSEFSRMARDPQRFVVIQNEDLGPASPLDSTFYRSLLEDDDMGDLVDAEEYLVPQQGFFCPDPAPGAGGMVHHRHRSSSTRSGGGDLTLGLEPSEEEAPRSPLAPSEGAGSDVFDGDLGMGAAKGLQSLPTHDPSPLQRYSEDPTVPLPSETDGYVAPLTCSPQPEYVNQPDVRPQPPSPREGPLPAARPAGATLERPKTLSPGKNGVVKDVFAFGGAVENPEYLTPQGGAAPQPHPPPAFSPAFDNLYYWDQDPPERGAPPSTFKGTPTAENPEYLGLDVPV
Method: Inhibition of HER2 Phosphorylation in Calu3 Tumor Cell Line
2×10^5 Calu3 cells [Calu-3 (HTB-55) cells available from ATTC] per well were plated 12-well plate. After 4 days cells were starved for 16 h in DMEM/0.5% FCS/1% Glutamine. During this time cells were incubated with 1 μM of the compound. Afterwards cells were lysed in lyses buffer containing 1% Triton, 10% Glycerol, 1 mM EGTA, 1.5 mM MgCl2, 150 mM NaCl, 50 mM Hepes pH 7.5, 1 mM PMSF, 10 μg/mL Aprotinin and […] Orthovanadate. Cell lysates were analyzed on a SDS PAGE and after transfer to a nitrocellulose membrane detected with an antibody specifically recognizing the pY 1248 in HER2. Inhibition of HER2 phosphorylation is calculated as percentage of the DMSO treated control. This percentage was calculated according to the following formula: Inhibition in %=100−(Phosphorylated-HER2-Signal of Test Sample*100/Phosphorylated-HER2-Signal DMSO-control).

SMILES: FC(F)Oc1ccc(/C=C/c2nc(COc3ccc(COCCn4ccnn4)cc3)co2)cc1 [example 1, 1-[2-(4-{2-[2-(E)-(4-Difluoromethoxy-phenyl)-vinyl]-oxazol-4-ylmethoxy}-benzyloxy)-ethyl]-1H-[1,2,3]triazole]
- inhibition at 1 µM [1]: 69.6%

SMILES: Cc1cc(OCc2coc(C=Cc3ccc(OC(F)(F)F)cc3)n2)ccc1COCCn1ccnn1 [Example 9, 1-[2-(2-Methyl-4-{2-[2-(4-trifluoromethoxy-phenyl)-vinyl]-oxazol-4-ylmethoxy}-benzyloxy)-ethyl]-1H-[1,2,3]triazole]
- melting point: 84 to 85 °C

SMILES: FC(F)(F)Sc1ccc(/C=C/c2nc(COc3ccc(COCCn4ccnn4)cc3)co2)cc1 [example 3, 1-[2-(4-{2-[2-(E)-(4-Trifluoromethylsulfanyl-phenyl)-vinyl]-oxazol-4-ylmethoxy}-benzyloxy)-ethyl]-1H-[1,2,3]triazole]
- inhibition at 1 µM [1]: 73.4%

SMILES: FC1(F)Oc2ccc(/C=C/c3nc(COc4ccc(COCCn5ccnn5)cc4)co3)cc2O1 [example 2, 1-[2-(4-{2-[2-(E)-(2,2-Difluoro-benzo[1,3]dioxol-5-yl)-vinyl]-oxazol-4-ylmethoxy}-benzyloxy)-ethyl]-1H-[1,2,3]triazole]
- inhibition at 1 µM [1]: 85.8%

SMILES: FC(F)(F)c1ccc(/C=C/c2nc(COc3ccc(COCCn4ccnn4)cc3)co2)cc1 [reference compound 2, 1-[2-(4-{2-[(E)-2-(4-Trifluoromethyl-phenyl)-vinyl]-oxazol-4-ylmethoxy}-benzyloxy)-ethyl]-1H-[1,2,3]triazole, reference compound]
- inhibition at 1 µM [1]: 54%

SMILES: Cc1cc(OCc2coc(C=Cc3ccc(SC(F)(F)F)cc3)n2)ccc1COCCn1ccnn1 [Example 8, 1-[2-(2-Methyl-4-{2-[2-(4-trifluoromethylsulfanyl-phenyl)-vinyl]-oxazol-4-ylmethoxy}-benzyloxy)-ethyl]-1H-[1,2,3]triazole]
- melting point: 102 °C

SMILES: Cc1cc(OCc2coc(C=Cc3ccc(OC(F)F)cc3)n2)ccc1COCCn1ccnn1 [Example 7, 1-[2-(4-{2-[2-(4-Difluoromethoxy-phenyl)-vinyl]-oxazol-4-ylmethoxy}-2-methyl-benzyloxy)-ethyl]-1H-[1,2,3]triazole]
- melting point: 119 to 120 °C

SMILES: FC(F)(F)Oc1ccc(/C=C/c2nc(COc3ccc(COCCn4ccnn4)cc3)co2)cc1 [example 4, 1-[2-(4-{2-[2-(E)-(4-Trifluoromethoxy-phenyl)-vinyl]-oxazol-4-ylmethoxy}-benzyloxy)-ethyl]-1H-[1,2,3]triazole]
- inhibition at 1 µM [1]: 78.6%
